Assay results reported in the ASAP Discovery antiviral challenge data (2025).
≈ marks a conversion by molar mass, not a printed value. Where “and” joins values, the source holds several entries; their conditions need not be identical. Equal entries are not always repeated.

Experiments:
[1] = mdck_mdr1
[2] = not given; remark: listed apart in the source

Compound: COCc1cc(Cl)cc([C@H](Nc2ccc3c(c2)CNC3)C(=O)NCC(F)F)c1 (racemic)
- logD: 0.2
- Papp [1]: 1.7 ×10⁻⁶ cm/s
- solubility kinetic [2]: 192 µM (≈ 78.7 µg/mL)

Compound: NCc1cc(C(=O)O)cc([C@@H]2C[C@H]2c2cc(Cl)cc(NC(=O)OCc3ccccc3)c2)c1 (racemic)
- logD: 2.7
- Papp [1]: 0.819 ×10⁻⁶ cm/s
- solubility kinetic [2]: 52 µM (≈ 23.4 µg/mL)

Compound: NCc1cccc(NC(=O)c2cccn3cc(CN4CCCC4)nc23)c1
- logD: 0.2
- Papp [1]: 5.25 ×10⁻⁶ cm/s
- solubility kinetic [2]: 332 µM (≈ 116 µg/mL)

Compound: O=C(Nc1ccc2c(c1)CNC2)c1cc(Cl)cc2c1CCC2
- logD: 1.8
- Papp [1]: 2.57 ×10⁻⁶ cm/s
- solubility kinetic [2]: 335 µM (≈ 105 µg/mL)

Compound: Clc1ccc2[nH]cc(Cc3ccc(-c4nn[nH]n4)cc3)c2c1
- logD: 2.1
- Papp [1]: 8.4 ×10⁻⁶ cm/s

Compound: O=C(Nc1cc(Cl)cc(C(=O)Nc2cccc(C3CCNCC3)c2)c1)OCc1ccccc1
- Papp [1]: 1.8 ×10⁻⁶ cm/s
- solubility kinetic [2]: 126 µM (≈ 58.5 µg/mL)

Compound: C=CC[C@H]1NCc2cc(NC(=O)c3cc(F)cc4[nH]ncc34)ccc21 (racemic)
- logD: 1.7
- Papp [1]: 3.86 ×10⁻⁶ cm/s
- solubility kinetic [2]: 356 µM (≈ 120 µg/mL)

Compound: O=C(Nc1cc(Cl)cc(C(=O)Nc2cccc(-c3nnn[nH]3)c2)c1)OCc1ccccc1
- logD: 3.7
- Papp [1]: 5.06 ×10⁻⁶ cm/s
- solubility kinetic [2]: 65 µM (≈ 29.2 µg/mL)

Compound: C[C@H]1O[C@@H](O[C@H]2[C@@H](O)C[C@H](O[C@H]3[C@@H](O)C[C@H](O[C@H]4CC[C@@]5(C)[C@H](CC[C@@H]6[C@@H]5C[C@@H](O)[C@]5(C)[C@@H](C7=CC(=O)OC7)CC[C@]65O)C4)O[C@@H]3C)O[C@@H]2C)C[C@H](O)[C@@H]1O
- Papp [1]: 0.6 ×10⁻⁶ cm/s

Compound: O=C(NCC(F)F)[C@H](Nc1ccc2c(c1)CNC2)c1cc(Br)cc2nc[nH]c12 (racemic)
- logD: 0.4
- Papp [1]: 0.5 ×10⁻⁶ cm/s

Compound: O=C(O)COc1cccc(NC(=O)c2cc(Cl)cc(NC(=O)OCc3ccccc3)c2)c1
- logD: 1.8
- Papp [1]: 1.1 ×10⁻⁶ cm/s
- solubility kinetic [2]: 360 µM (≈ 164 µg/mL)

Compound: O=C(O)Cn1ncc2cc(-c3cc(Cl)cc(NC(=O)OCc4ccccc4)c3)ccc21
- logD: 2.6
- Papp [1]: 5.12 ×10⁻⁶ cm/s
- solubility kinetic [2]: 131 µM (≈ 57.1 µg/mL)

Compound: O=C1Cc2c(cc(F)cc2C(=O)Nc2ccc3c(c2)CNC3)N1
- logD: -0.2
- Papp [1]: 2.9 ×10⁻⁶ cm/s
- solubility kinetic [2]: 368 µM (≈ 115 µg/mL)

Compound: O=C1Cc2cc(C(=O)Nc3ccc4c(c3)CNC4)ccc2N1
- Papp [1]: 0.873 ×10⁻⁶ cm/s
- solubility kinetic [2]: 136 µM (≈ 39.9 µg/mL)

Compound: CNC(=O)[C@H](Nc1cccc(-c2nn[nH]n2)c1)c1cc(Cl)cc2[nH]ncc12 (racemic)
- logD: 0.3
- Papp [1]: 0.863 ×10⁻⁶ cm/s
- solubility kinetic [2]: 347 µM (≈ 133 µg/mL)

Compound: CNC(=O)[C@H](Nc1cc(CN)cc(-c2nn[nH]n2)c1)c1cc(Cl)cc(C2CC2)c1 (racemic)
- logD: 1.5
- Papp [1]: 0.302 ×10⁻⁶ cm/s
- solubility kinetic [2]: 352 µM (≈ 145 µg/mL)

Compound: O=C(Nc1cc(Cl)cc([C@H](Nc2cccc(-c3nn[nH]n3)c2)C(=O)NCc2ccccc2)c1)OCc1ccccc1 (racemic)
- logD: 3.7
- Papp [1]: 0.6 ×10⁻⁶ cm/s

Compound: Cc1ccc(NC(=O)c2cc(Cl)cc(NC(=O)OCc3ccccc3)c2)cc1CN
- Papp [1]: 0.0873 ×10⁻⁶ cm/s

Compound: O=C(NCCCF)[C@H](Nc1ccc2c(c1)CNC2)c1cc(Cl)cc(C2CC2)c1 (racemic)
- logD: 1.2
- Papp [1]: 0.7 ×10⁻⁶ cm/s
- solubility kinetic [2]: 394 µM (≈ 158 µg/mL)

Compound: O=C(NCC(F)F)[C@H](Nc1ccc2c(c1)CNC2)c1cc(Cl)cc2c1CCC2 (racemic)
- logD: 1.2
- Papp [1]: 0.9 ×10⁻⁶ cm/s

Compound: N#CCCNC(=O)[C@H](Nc1ccc2c(c1)CNC2)c1cc(Cl)cc(C2CC2)c1 (racemic)
- logD: 0.6
- Papp [1]: 0.5 ×10⁻⁶ cm/s
- solubility kinetic [2]: 374 µM (≈ 148 µg/mL)

Compound: COc1cc(C#N)cc([C@H](Nc2ccc3c(c2)CNC3)C(=O)NCC(F)F)c1 (racemic)
- logD: -0.4
- Papp [1]: 0.5 ×10⁻⁶ cm/s
- solubility kinetic [2]: 381 µM (≈ 147 µg/mL)

Compound: CC(C)c1nc2c(C(=O)Nc3cccc(CN)c3)cccc2[nH]1
- logD: 1.9
- Papp [1]: 3.84 ×10⁻⁶ cm/s
- solubility kinetic [2]: 316 µM (≈ 97.4 µg/mL)

Compound: NCc1cccc(NC(=O)c2cc(Cl)cc(NC(=O)OCc3ccccc3)c2)c1
- logD: 2.7
- Papp [1]: 2.11 ×10⁻⁶ cm/s
- solubility kinetic [2]: 89 µM (≈ 36.5 µg/mL)

Compound: O=C(NCC(F)F)[C@H](Nc1ccc2c(c1)CNC2)c1cc(Cl)cc(C2CC2)c1 (single isomer, unassigned)
- logD: 1.3 and 1.4
- Papp [1]: 1.3 ×10⁻⁶ cm/s and 1.9 ×10⁻⁶ cm/s
- solubility kinetic [2]: 326 µM and 139 µM

Compound: O=C(NCC(F)F)[C@H](Nc1ccc2c(c1)CNC2)c1cc(Cl)cc2ccoc12 (racemic)
- logD: 0.6
- Papp [1]: 2.1 ×10⁻⁶ cm/s
- solubility kinetic [2]: 187 µM (≈ 75.9 µg/mL)

Compound: O=C1Cc2c(cccc2C(=O)Nc2ccc3c(c2)CNC3)N1
- logD: 0.3
- Papp [1]: 0.924 ×10⁻⁶ cm/s
- solubility kinetic [2]: 152 µM (≈ 44.6 µg/mL)

Compound: CNC(=O)[C@H](Nc1cc(CN)cc(C(=O)O)c1)c1cc(Cl)cc(C2CC2)c1 (racemic)
- logD: 0
- Papp [1]: 0.94 ×10⁻⁶ cm/s
- solubility kinetic [2]: 335 µM (≈ 130 µg/mL)

Compound: CC(C)NC(=O)[C@H](Nc1ccc2c(c1)CNC2)c1cc(Cl)cc2[nH]ncc12 (racemic)
- logD: 0.5
- Papp [1]: 0.963 ×10⁻⁶ cm/s
- solubility kinetic [2]: 311 µM (≈ 119 µg/mL)

Compound: O=C(NCC(F)F)[C@H](Nc1cc2c(cc1Br)CNC2)c1cc(Cl)cc(C2CC2)c1 (racemic)
- logD: 2.9
- Papp [1]: 0.2 ×10⁻⁶ cm/s
- solubility kinetic [2]: 333 µM (≈ 161 µg/mL)

Compound: Cc1cc([C@H](Nc2ccc3c(c2)CNC3)C(=O)NCC(F)F)cc(C(F)(F)F)c1 (racemic)
- logD: 1
- Papp [1]: 0.7 ×10⁻⁶ cm/s
